Here are results for 60 compounds from patent US20230391783A1, “COMPOUND CONTAINING 2,4-THIAZOLE RING, PREPARATION METHOD THEREFOR, AND APPLICATION THEREOF” (SHANDONG UNIVERSITY, priority 2021, published 2023).

In the assay the test system is lymphocytes (fresh spleen cells). In words: Lymphocyte proliferation assay (ConA-induced spleen cells). The format is cell-based, rat. The settings on record: 48 hours; for IC50: Rattus norvegicus, inhibition of lymphocyte proliferation, 5 μg/mL ConA; for Inhibition rate (%): lymphocyte proliferation induced with 5 μg/mL ConA, test concentration not given. The procedure: Lymphocytotoxicity test: rats were euthanized by spinal dislocation method, their spleens were aseptically removed and ground to make a single cell suspension. After removing red blood cells with 2 mL of red blood cell lysis buffer, the cell concentration was adjusted to 2×10^6 cells/mL using RPMI-1640 medium containing 10% fetal bovine serum (FBS). Next, 100 μL of the 2×10^6 cells/mL cell suspension and 100 μL of the appropriate concentration of the tested compound were added to each well of a 96-well plate, and the plate was incubated at 37° C. with 5% CO2 for 48 hours. At the end of the incubation period, 10 μL of CCK8 was added to each well, and the plate was returned to the incubator for 5-7 hours. The OD450 value was then measured at 450 nm using an enzyme-linked immunosorbent assay reader.
Lymphocyte proliferation assay: fresh spleen cells at a concentration of 2×10^6 cells/mL were incubated for 48 hours in an incubator maintained at 37° C. and 5% CO2 for 48 hours, and the culture medium was induced for cell proliferation with 5 μg/mL of ConA, and the appropriate concentration of the tested compound was added to test its inhibitory activity on lymphocyte proliferation. The test results of some compounds are shown in the table below and figures accompanying the application: […]

The term IC50 denotes the concentration that inhibits the measured activity by half. A high value points to weaker potency. In the case of `O=C(c1csc(-c2cnn3cccnc23)n1)N1CCC[C@H]1c1cccnc1` [IA-1], it took 210 ± 8.87 nM to reach half-maximal inhibition (IC50) and the “Inhibition rate (%)” value is given as 81.38%.
The like results for `O=C(NCc1cccnc1)c1csc(NC(=O)c2cnn3cccnc23)n1` [IA-2] were, in that order, 439 ± 24.2 nM and 65.17%.
The like results for `CC(C)=CCOC(=O)c1csc(-c2cnn3cccnc23)n1` [IA-4] were, in that order, 438 ± 12.3 nM and 28.23%.
As to `O=C(NCc1ccc(F)cc1F)c1csc(-c2cnn3ccccc23)n1` [IA-5], the “Inhibition rate (%)” value is recorded as 47.15%.
Consider `O=C(Nc1ccccc1)c1csc(-c2cnn3cccnc23)n1` [IA-6], for which the “Inhibition rate (%)” value was found to be 40.69%.
In the case of `CC(C)=CCC/C(C)=C/COC(=O)c1csc(-c2cnn3cccnc23)n1` [IA-7], the IC50 was 487 ± 18.3 nM and the “Inhibition rate (%)” value came out at 52.55%.
Regarding `O=C(NCc1ccc(Cl)cc1Cl)c1csc(-c2cnn3cccnc23)n1` [IA-8], the “Inhibition rate (%)” value is recorded as 43.39%.
For the compound `O=C(c1csc(-c2cnn3cccnc23)n1)N1CCC[C@H]1c1ccccc1` [IA-9], half-maximal inhibition (IC50) was put at 399 ± 15.2 nM and the “Inhibition rate (%)” value came out at 58.26%.
As for `O=C(Nc1cccnc1)c1csc(-c2cnn3cccnc23)n1` [IA-10], the IC50 worked out at 421 ± 21.1 nM and the “Inhibition rate (%)” value amounted to 59.61%.
As for `O=C(NCc1ccccc1)c1csc(-c2cnn3cccnc23)n1` [IA-11], the midpoint of inhibition, the IC50, lay at 263 ± 13.4 nM and the “Inhibition rate (%)” value is given as 70.42%.
In the same order, the values of `O=C(NCCc1cccnc1)c1csc(-c2cnn3cccnc23)n1` [IA-12] are 236 ± 17.2 nM and 83.63%.
For `O=C(c1csc(-c2cnn3cccnc23)n1)N1CCC[C@H]1c1ccncc1` [IA-13], it took 410 ± 33.5 nM to reach half-maximal inhibition (IC50) and the “Inhibition rate (%)” value came to 59.01%.
For `COC(=O)[C@@H]1C[C@@H](O)CN1C(=O)c1csc(-c2cnn3cccnc23)n1` [IA-15], the “Inhibition rate (%)” value came out at 30.78%.
With `COC(=O)C1CCCCN1C(=O)c1csc(-c2cnn3cccnc23)n1` (stereo not shown) [IA-16], the “Inhibition rate (%)” value was 28.83%.
Turning to `O=C(c1csc(-c2cnn3cccnc23)n1)N1CCC[C@H]1c1cc(F)ccc1F` [IA-17], inhibition was half-maximal at 436 ± 33.4 nM (IC50) and the “Inhibition rate (%)” value stood at 46.55%.
With `O=C(NCCC(F)(F)F)c1csc(-c2cnn3cccnc23)n1` [IA-18], the “Inhibition rate (%)” value is recorded as 43.09%.
Turning to `O=C(NCC(O)C(F)(F)F)c1csc(-c2cnn3cccnc23)n1` (stereo not shown) [IA-19], the “Inhibition rate (%)” value is 41.89%.
For the compound `O=C(NC1CCC(C(F)(F)F)CC1)c1csc(-c2cnn3cccnc23)n1` (stereo not shown) [IA-20], the “Inhibition rate (%)” value is 42.49%.
Regarding `O=C(NCCc1ccccn1)c1csc(-c2cnn3cccnc23)n1` [IA-21], the IC50 was found to be 488 ± 22 nM and the “Inhibition rate (%)” value is on record as 44.14%.
Turning to `O=C(NCc1cncnc1)c1csc(-c2cnn3cccnc23)n1` [IA-22], the “Inhibition rate (%)” value is recorded as 32.73%.
As for `O=C(c1csc(-c2cnn3cccnc23)n1)N1CCN(c2cccnc2)CC1` [IA-23], the IC50 came to 350 ± 17 nM and the “Inhibition rate (%)” value is reported as 60.57%.
In the same order, the values of `CC(C)=CCC/C(C)=C/CNC(=O)c1csc(-c2cnn3cccnc23)n1` [IA-24] are 457 ± 30.6 nM and 55.71%.
For the compound `Cc1cnc2c(-c3nc(C(=O)NCCc4ccccn4)cs3)cnn2c1` [IA-25], the “Inhibition rate (%)” value is 37.24%.
As for `O=C(c1nc(C(=O)N2CCC[C@H]2c2cccnc2)cs1)c1c[nH]c2ccccc12` [IIA-1], the “Inhibition rate (%)” value is recorded as 65.32%.
On the same count and under the same terms, the figure for `CC(C)=CCC/C(C)=C/CC/C(C)=C/COC(=O)c1csc(C(=O)c2c[nH]c3ccccc23)n1` [IIA-2] is 25.83%.
Regarding `C#COC(=O)c1csc(C(=O)c2c[nH]c3ccccc23)n1` [IIA-3], the “Inhibition rate (%)” value came out at 47.15%.
Turning to `CC(C)=CCOC(=O)c1csc(C(=O)c2c[nH]c3ccccc23)n1` [IIA-4], the “Inhibition rate (%)” value is 48.95%.
On to `CC(C)=CCC/C(C)=C/COC(=O)c1csc(C(=O)c2c[nH]c3ccccc23)n1` [IIA-5], for which the “Inhibition rate (%)” value was determined as 57.51%.
On to `O=C(NCc1cccnc1)c1csc(C(=O)c2c[nH]c3ccccc23)n1` [IIA-6], for which the IC50 came to 479 ± 14.2 nM and the “Inhibition rate (%)” value turned out to be 56.46%.
Turning to `CC1CCC2(OC1)OC1CC3C4CC=C5CC(OC(=O)c6csc(C(=O)c7c[nH]c8ccccc78)n6)CCC5(C)C4CCC3(C)C1C2C` (stereo not shown) [IIA-7], the “Inhibition rate (%)” value worked out at 38.74%.
Same read-out and setting: for `CC(C)CCCC(C)C1CCC2C3CC=C4CC(OC(=O)c5csc(C(=O)c6c[nH]c7ccccc67)n5)CCC4(C)C3CCC12C` (stereo not shown) [IIA-8] the value was 50.45%.
On to `CCC(CCC(C)C1CCC2C3CC=C4CC(OC(=O)c5csc(C(=O)c6c[nH]c7ccccc67)n5)CCC4(C)C3CCC12C)C(C)C` (stereo not shown) [IIA-9], for which the “Inhibition rate (%)” value came to 48.2%.
On to `CC1CCC2(OC1)OC1CC3C4CC=C5CC(NC(=O)c6csc(C(=O)c7c[nH]c8ccccc78)n6)CCC5(C)C4CCC3(C)C1C2C` (stereo not shown) [IIA-10], for which the “Inhibition rate (%)” value came out at 23.57%.
The same measure, in the same setting: for `Cc1c(COC(=O)c2csc(C(=O)c3c[nH]c4ccccc34)n2)cccc1-c1ccccc1` [IIA-11] the value was 25.08%.
Consider `CC(=O)NCCNC(=O)c1csc(C(=O)c2c[nH]c3ccccc23)n1` [IIA-12], for which the “Inhibition rate (%)” value came to 27.93%.
The same measure, in the same setting: for `COC(=O)C(CO)NC(=O)c1csc(C(=O)c2c[nH]c3ccccc23)n1` (stereo not shown) [IIA-13] the value was 43.99%; for `O=C(NCc1ccc(F)cc1F)c1csc(C(=O)c2c[nH]c3ccccc23)n1` [IIA-14], 37.99%; for `O=C(NCCCN1CCCC1)c1csc(C(=O)c2c[nH]c3ccccc23)n1` [IIA-15], 28.53%.
On the same count and under the same terms, for `O=C(Nc1cccnc1)c1csc(C(=O)c2c[nH]c3ccccc23)n1` [IIA-17] the value was 59.31%.
For the compound `O=C(c1nc(C(=O)N2CCC[C@H]2c2ccccc2)cs1)c1c[nH]c2ccccc12` [IIA-18], the “Inhibition rate (%)” value worked out at 50.6%.
The same measure, in the same setting: the figure for `O=C(NCc1ccccc1)c1csc(C(=O)c2c[nH]c3ccccc23)n1` [IIA-19] is 46.55%; for `O=C(NCCc1ccncc1)c1csc(C(=O)c2c[nH]c3ccccc23)n1` [IIA-20] it is 42.64%; for `O=C(c1nc(C(=O)N2CCC[C@H]2c2ccncc2)cs1)c1c[nH]c2ccccc12` [IIA-21] it is 54.35%.
Take `O=C(c1nc(C(=O)N2CCCCC2C(=O)O)cs1)c1c[nH]c2ccccc12` (stereo not shown) [IIA-22]: the half-maximal inhibitory concentration (IC50) amounted to 479 ± 9.88 nM and the “Inhibition rate (%)” value stood at 53.75%.
In the same order, the values of `O=C(c1nc(C(=O)N2C[C@H](O)C[C@H]2C(=O)O)cs1)c1c[nH]c2ccccc12` [IIA-23] are 439 ± 25.3 nM and 58.56%.
Regarding `O=C(NC(CO)C(=O)O)c1csc(C(=O)c2c[nH]c3ccccc23)n1` (stereo not shown) [IIA-24], the IC50 is 421 ± 19.9 nM and the “Inhibition rate (%)” value worked out at 59.91%.
`COC(=O)C1CCCCN1C(=O)c1csc(C(=O)c2c[nH]c3ccccc23)n1` (stereo not shown) [IIA-25]: the “Inhibition rate (%)” value worked out at 49.85%.
The same measure, in the same setting: for `COC(=O)[C@@H]1C[C@@H](O)CN1C(=O)c1csc(C(=O)c2c[nH]c3ccccc23)n1` [IIA-26] the value was 45.05%; for `O=C(NCC(F)(F)F)c1csc(C(=O)c2c[nH]c3ccccc23)n1` [IIA-27], 51.8%; for `O=C(c1nc(C(=O)N2CCCC2c2cc(F)ncc2F)cs1)c1c[nH]c2ccccc12` (stereo not shown) [IIA-28], 54.05%.
For the compound `O=C(NCCC(F)(F)F)c1csc(C(=O)c2c[nH]c3ccccc23)n1` [IIA-29], the “Inhibition rate (%)” value was 43.54%.
For the compound `CC(C)=CCC/C(C)=C/CNC(=O)c1csc(C(=O)c2c[nH]c3ccccc23)n1` [IIA-30], the “Inhibition rate (%)” value stood at 26.88%.
On the same count and under the same terms, the figure for `O=C(OCc1cn(CCc2ccccc2)nn1)c1csc(C(=O)c2c[nH]c3ccccc23)n1` [IIB-1] is 45.65%.
Take `O=C(OCc1cn(Cc2ccc3ccccc3c2)nn1)c1csc(C(=O)c2c[nH]c3ccccc23)n1` [IIB-2]: the “Inhibition rate (%)” value was found to be 49.4%.
For `O=C(OCc1cn(CCCCCCBr)nn1)c1csc(C(=O)c2c[nH]c3ccccc23)n1` [IIB-3], the IC50 came out at 468 ± 20.1 nM and the “Inhibition rate (%)” value came out at 39.79%.
On to `O=C(OCc1cn(CCCCCCO)nn1)c1csc(C(=O)c2c[nH]c3ccccc23)n1` [IIB-4], for which the “Inhibition rate (%)” value is on record as 21.17%.
On the same count and under the same terms, the figure for `O=C(OCc1cn(CC23CC4CC(CC(C4)C2)C3)nn1)c1csc(C(=O)c2c[nH]c3ccccc23)n1` [IIB-5] is 59.01%; for `COC(=O)c1csc(C(=O)c2c[nH]c3ccccc23)n1` [ITE, reference compound] it is 57.96%; for `Nc1ccccc1C(=O)CC(N)C(=O)O` (stereo not shown) [KYN, kynurenine, reference compound] it is 51.65%.
In the case of `C=CC[C@@H]1/C=C(\C)C[C@H](C)C[C@H](OC)[C@H]2O[C@@](O)(C(=O)C(=O)N3CCCC[C@H]3C(=O)O[C@H](/C(C)=C/[C@@H]3CC[C@@H](O)[C@H](OC)C3)[C@H](C)[C@@H](O)CC1=O)[C@H](C)C[C@@H]2OC` [Tacrolimus, reference compound], the IC50 turned out to be 504 ± 16.2 nM and the “Inhibition rate (%)” value is 57.54%.
